Data taken from publication PMC8954350, “Non-Canonical Cannabinoid Receptors with Distinct Binding and Signaling Properties in Prostate and Other Cancer Cell Types Mediate Cell Death” (International Journal of Molecular Sciences, 2022).
Entries after “also recorded” stand apart in the source; their conditions may differ. Where two headings read alike, the source gives them in different places.

Key:
[1] = test system: CBRs expressed in DU-145 cells; assay type: cell-based, human
Experimental: (§1) These studies were conducted to determine the effect of chronic exposure of PC-3 and DU-145 cells to cannabinoid ligands with high affinity for non-canonical CBRs on receptor expression. PC-3 or DU-145 cells were seeded into T25 flasks at a density of 1.6 × 10^6 cells in normal medium and cultured at 37 °C with 5% CO2 for 24 h. Following overnight seeding, culture media was aspirated and replaced with serum-free medium containing vehicle or a receptor-saturating concentration (10 μM) of each cannabinoid ligand to be tested. Cells were subsequently cultured at 37 °C with 5% CO2 for an additional 48 h. […] Cells were then centrifuged at 1200 rpm for 10 min, and pellets were stored in −80 °C until future use.
(§2) All binding reactions were conducted in triplicate, in a final volume of 1 mL, and following mixing were incubated for 20 min in a 37 °C water bath to achieve equilibrium. After incubation, reactions were terminated by rapid vacuum filtration through Whatman GF/B glass fiber filters (Brandel; Gaithersburg, MD, USA), followed by three washes of 4 mls of ice-cold filtration buffer (50 mM Tris, pH 7.4, and 0.05% bovine serum albumin). Samples were punched out from filter papers into scintillation vials, to which 4 mls of ScintiverseTM-BDR cocktail scintillation fluid (Fisher Scientific; Hampton, NH, USA) was added. Filters were incubated at room temperature for 24 h in scintillation fluid, vortexed, and radioactivity (measured as DPMs) was quantified via a liquid scintillation spectrophotometer (Tri Carb 2100 TR Liquid Scintillation Analyzer, Packard Instruments, Meriden, CT, USA).

[2] = test system: CBRs expressed in PC-3 cells; assay type: cell-based, human
Experimental: as §1, §2

[3] = test system: CBRs expressed in PC-3 membranes; assay: [^35S]GTPγS binding, PC-3 membranes; assay type: biochemical, human; conditions: 10 μM
Experimental: [^35S]GTPγS binding experiments were conducted to examine G protein modulation by cannabinoids in prostate cancer cell lines DU-145 and PC-3, as detailed previously. Briefly, CHO-hCB2 (50 μg), PC3 (100 μg), or DU-145 (100 μg) membrane homogenates were incubated with a single receptor-saturating concentration (10^−5 M) of cannabinoid ligands to be examined and 0.1 nM [^35S]GTPγS in incubation buffer (20 mM HEPES buffer, pH 7.4, 10 μM GDP, 100 mM NaCl, 0.1% bovine serum albumin, and 10 mM MgCl2). Non-specific binding was defined as radioactivity remaining in the presence of 10 μM of non-radioactive GTPγS and subtracted from total binding to determine specific [^35S]GTPγS binding. All binding reactions were conducted in triplicate, in a final volume of 1 mL, and, following mixing, were incubated for 30 min at 30 °C. After incubation, reactions were terminated by rapid vacuum filtration through Whatman GF/B glass fiber filters (Brandel; Gaithersburg, MD, USA), followed by three washes of 4 mls of ice-cold filtration buffer (50 mM Tris, pH 7.4, and 0.05% bovine serum albumin). Samples were punched out from filter papers into scintillation vials, to which 4 mls of ScintiverseTM-BDR cocktail scintillation fluid (Fisher Scientific; Hampton, NH, USA) was added. Filters were incubated at room temperature for 24 h in scintillation fluid, vortexed, and radioactivity (measured as DPMs) was determined via a liquid scintillation spectrophotometer (Tri Carb 2100 TR Liquid Scintillation Analyzer, Packard Instruments, Meriden, CT, USA).

[4] = test system: CBRs expressed in DU-145 membranes; assay type: biochemical, human; conditions: 10 μM
Experimental: as §2, with “Non-specific binding was defined as radioactivity remaining in the presence of 10 μM of non-radioactive GTPγS and subtracted from total binding to determine specific [^35S]GTPγS binding. All” for “All”, “mL, and,” for “mL, and”, “following mixing,” for “following mixing”, “for 30” for “for 20”, “min at 30 °C.” for “min in a 37 °C water bath to achieve equilibrium.”, “was determined” for “was quantified”

[5] = test system: CBRs expressed in DU-145 membranes; assay type: binding, human
Experimental: as §2, with “The assay was conducted as previously detailed. […] All” for “All”, “mL, and,” for “mL, and”, “following mixing,” for “following mixing”
These experiments were conducted to screen well-characterized cannabinoid ligands with high affinity for canonical CB1 and/or CB2Rs for binding to CBRs expressed in prostate cancer cells lines, as detailed in [33]. […] All binding reactions were conducted in triplicate, in a final volume of 1 mL, and, following mixing, were incubated for 20 min in a 37 °C water bath to achieve equilibrium. After incubation, reactions were terminated by rapid vacuum filtration and processed for radioactivity, as detailed in Section 4.5.1.

[6] = test system: DU-145 cells; assay: LDH cytotoxicity, DU-145 cells; assay type: cell-based, human; conditions: 24 h; for LDH release: 10 μM; for increase in LDH release: 50 μM
Experimental: DU-145 cells were seeded at a density of 130 × 10^3 cells/well in 6-well plates and maintained in an incubator at 37 °C with 5% CO2 for 24 h. […] Treated cells were incubated for an additional 24 h, followed by quantification of LDH release. LDH released from damaged or dying cells oxidizes lactate to produce NADH which then reacts with a water-soluble tetrazolium salt (WST) reagent to produce a yellow-colored product. The intensity of the yellow-colored product was detected with an OD reading at 450 nm (quantified by a BioTek microplate reader interfaced with SoftMax Pro 5.4.5 software; Winooski, VT, USA) and was directly proportional to the amount of LDH released. Percent cytotoxicity was calculated according to the manufacturer’s protocol as the following: % Cytotoxicity=OD450 Supernatant/Supernatant+Lysate

| Compound | CBR downregulation (reduction of [^3H]WIN-55,212-2 (1 nM) binding) [1] | CBR downregulation (reduction of [^3H]WIN-55,212-2 (1 nM) binding) [2] | modulation of [^35S]GTPγS binding [3] | modulation of [^35S]GTPγS binding [4] | displacement of [^3H]WIN-55,212-2 [5] | LDH release [6] | increase in LDH release [6] | attenuation of GW-405833 (50 μM)-induced LDH release ([6]; co-incubation with 10 μM ligand) | CBR downregulation (reduction of [^3H]WIN-55,212-2 (1 nM) binding) ([1]; DU-145 cells, 10 μM, 48 h, vs vehicle) | CBR downregulation (reduction of [^3H]WIN-55,212-2 (1 nM) binding) ([2]; PC-3 cells, 10 μM, 48 h, vs vehicle) | decrease in [^35S]GTPγS binding below basal levels [4] | displacement of [^3H]WIN-55,212-2 ([5]; 1 μM ligand, 1 nM radioligand, DU-145 membranes) |
| --- | --- | --- | --- | --- | --- | --- | --- | --- | --- | --- | --- | --- |
| COc1ccc2c(c1)c(CCN1CCOCC1)c(C)n2C(=O)c1cccc(Cl)c1Cl [GW-405833] | 55 ± 12.5% | 68.33 ± 3.8% | neither the agonist at canonical CB1/CB2 receptors WIN-55-212-2 (10 μM) nor the CB2-selective agonist GW-405-833 (10 μM) increased [^35S]GTPγS binding | neither the agonist at canonical CB1/CB2 receptors WIN-55-212-2 (10 μM) nor the CB2-selective agonist GW-405-833 (10 μM) increased [^35S]GTPγS binding | greater than 50% | No significant effects | 74.2 ± 4.5% |  |  |  |  |  |
| Cc1c(C(=O)NN2CCCCC2)nn(-c2ccc(Cl)cc2Cl)c1-c1ccc(Cl)cc1 [rimonabant] | 63.75 ± 15.5% | non-significant trend towards decreased receptor expression | did reduce [^35S]GTPγS binding below basal levels | did reduce [^35S]GTPγS binding below basal levels | greater than 50% | No significant effects | 16.5 ± 3.5% | almost completely blocked GW-405833 induced LDH release |  |  |  |  |
| Cc1c(C(=O)c2cccc3ccccc23)c2cccc3c2n1[C@H](CN1CCOCC1)CO3 [WIN-55,212-2] |  |  | neither the agonist at canonical CB1/CB2 receptors WIN-55-212-2 (10 μM) nor the CB2-selective agonist GW-405-833 (10 μM) increased [^35S]GTPγS binding | neither the agonist at canonical CB1/CB2 receptors WIN-55-212-2 (10 μM) nor the CB2-selective agonist GW-405-833 (10 μM) increased [^35S]GTPγS binding |  | neither low (10 μM) nor high (50 μM) concentrations of WIN-55,212-2, AM-251 or AM-630 altered LDH release | neither low (10 μM) nor high (50 μM) concentrations of WIN-55,212-2, AM-251 or AM-630 altered LDH release |  | 88.45 ± 5.22% | 84.33 ± 5.2% | 15.3 ± 1.6% | significantly displaced; also recorded: complete displacement |
